{"source": "paper PMC5218480", "about": "(PLoS ONE, 2017)", "tested_on": "MV-4-11 cells", "assay": "Gene expression microarray analysis (Affymetrix PrimeView) and GSEA", "assay_type": "cell-based, human", "design": "RFU PODN (11730768_x_at) / Fold change /veh PODN (11730768_x_at) / RFU LINC00158 (11744669_a_at) / Fold change /veh LINC00158 (11744669_a_at) / RFU DUSP10 (11751237_a_at) / Fold change /veh DUSP10 (11751237_a_at) / RFU ID3 (11757404_x_at) / Fold change /veh ID3 (11757404_x_at) / RFU PLEKHG5 (11737974_s_at) / Fold change /veh PLEKHG5 (11737974_s_at) / RFU LRRC4B (11730491_at) / Fold change /veh LRRC4B (11730491_at) / RFU GIMAP4 (11747438_a_at) / Fold change /veh GIMAP4 (11747438_a_at) / RFU KRT8 (11758183_x_at) / Fold change /veh KRT8 (11758183_x_at) / RFU CNN1 (11734310_a_at) / Fold change /veh CNN1 (11734310_a_at) / RFU VPS37D (11726825_at) / Fold change /veh VPS37D (11726825_at) / RFU C10orf10 (11716522_x_at) / Fold change /veh C10orf10 (11716522_x_at) / RFU KIR2DL2 /// KIR2DL4 /// KIR2DL5A /// KIR2DL5B /// KIR2DS1 /// KIR2DS2 /// KIR2DS3 /// KIR2DS4 /// KIR3DL3 /// KIR3DL3 /// KIR3DS1 (11738374_at) / Fold change /veh KIR2DL2 /// KIR2DL4 /// KIR2DL5A /// KIR2DL5B /// KIR2DS1 /// KIR2DS2 /// KIR2DS3 /// KIR2DS4 /// KIR3DL3 /// KIR3DL3 /// KIR3DS1 (11738374_at) / RFU C1QL1 (11718748_at) / Fold change /veh C1QL1 (11718748_at) / RFU TMPRSS4 (11747572_a_at) / Fold change /veh TMPRSS4 (11747572_a_at) / RFU HAMP (11756126_x_at) / Fold change /veh HAMP (11756126_x_at) / RFU RNFT2 (11725882_a_at) / Fold change /veh RNFT2 (11725882_a_at) / RFU NR4A2 (11747474_a_at) / Fold change /veh NR4A2 (11747474_a_at) / RFU ABCC12 (11746883_a_at) / Fold change /veh ABCC12 (11746883_a_at) / RFU TMEM136 (11760407_x_at) / Fold change /veh TMEM136 (11760407_x_at) / RFU CLDN22 /// WWC2 (11732394_at) / Fold change /veh CLDN22 /// WWC2 (11732394_at) / RFU HLA-DPB1 (11760878_x_at) / Fold change /veh HLA-DPB1 (11760878_x_at) / RFU SPINT1 (11716480_a_at) / Fold change /veh SPINT1 (11716480_a_at) / RFU GAP43 (11754022_s_at) / Fold change /veh GAP43 (11754022_s_at) / RFU A4GNT (11735810_at) / Fold change /veh A4GNT (11735810_at) / RFU PRB3 (11715151_x_at) / Fold change /veh PRB3 (11715151_x_at) / RFU TUBB4B (11761932_at) / Fold change /veh TUBB4B (11761932_at) / RFU CAPN14 (11732068_a_at) / Fold change /veh CAPN14 (11732068_a_at) / RFU TMCC2 (11721928_a_at) / Fold change /veh TMCC2 (11721928_a_at) / RFU IRGQ (11745062_a_at) / Fold change /veh IRGQ (11745062_a_at) / RFU FAM174B (11720279_a_at) / Fold change /veh FAM174B (11720279_a_at) / RFU TMPRSS4 (11748680_a_at) / Fold change /veh TMPRSS4 (11748680_a_at) / RFU FAM212B (11763350_a_at) / Fold change /veh FAM212B (11763350_a_at) / RFU PLEKHG5 (11743358_a_at) / Fold change /veh PLEKHG5 (11743358_a_at) / RFU ZSCAN30 (11745921_a_at) / Fold change /veh ZSCAN30 (11745921_a_at) / RFU CMKLR1 (11741424_a_at) / Fold change /veh CMKLR1 (11741424_a_at) / RFU LOC101060620 /// MAPK8IP1 (11723275_at) / Fold change /veh LOC101060620 /// MAPK8IP1 (11723275_at) / RFU SPTSSB (11747773_x_at) / Fold change /veh SPTSSB (11747773_x_at) / RFU PRSS12 (11739890_at) / Fold change /veh PRSS12 (11739890_at) / RFU BIN1 (11741810_x_at) / Fold change /veh BIN1 (11741810_x_at) / RFU WNT11 (11732464_a_at) / Fold change /veh WNT11 (11732464_a_at) / RFU C10orf10 (11716521_a_at) / Fold change /veh C10orf10 (11716521_a_at) / RFU C5orf56 (11738089_at) / Fold change /veh C5orf56 (11738089_at) / RFU CYB561 (11721691_x_at) / Fold change /veh CYB561 (11721691_x_at) / RFU ANKRD19P (11752326_a_at) / Fold change /veh ANKRD19P (11752326_a_at) / RFU OR2T12 /// OR2T33 /// OR2T8 (11738714_s_at) / Fold change /veh OR2T12 /// OR2T33 /// OR2T8 (11738714_s_at) / RFU VCAN (11748164_a_at) / Fold change /veh VCAN (11748164_a_at) / RFU JSRP1 (11732532_at) / Fold change /veh JSRP1 (11732532_at) / RFU KRTAP10-11 (11738290_x_at) / Fold change /veh KRTAP10-11 (11738290_x_at) / RFU MYO3A (11730013_a_at) / Fold change /veh MYO3A (11730013_a_at) / RFU EBF3 (11725865_a_at) / Fold change /veh EBF3 (11725865_a_at) / RFU CAMK2N1 (11719241_x_at) / Fold change /veh CAMK2N1 (11719241_x_at) / RFU C5orf56 (11738088_a_at) / Fold change /veh C5orf56 (11738088_a_at) / RFU OLFML3 (11715873_a_at) / Fold change /veh OLFML3 (11715873_a_at) / RFU LOC100653217 /// NTM (11731650_a_at) / Fold change /veh LOC100653217 /// NTM (11731650_a_at) / RFU MAPK11 (11762145_a_at) / Fold change /veh MAPK11 (11762145_a_at) / RFU FIZ1 (11724087_x_at) / Fold change /veh FIZ1 (11724087_x_at) / RFU OASL (11726364_x_at) / Fold change /veh OASL (11726364_x_at) / RFU SOX15 (11748057_x_at) / Fold change /veh SOX15 (11748057_x_at) / RFU CD79A (11719716_a_at) / Fold change /veh CD79A (11719716_a_at) / RFU HIST1H1D (11736915_at) / Fold change /veh HIST1H1D (11736915_at) / RFU CASKIN2 (11723855_a_at) / Fold change /veh CASKIN2 (11723855_a_at) / RFU LOC730098 (11760151_x_at) / Fold change /veh LOC730098 (11760151_x_at) / RFU OR4N2 (11742367_at) / Fold change /veh OR4N2 (11742367_at) / RFU PRRT2 (11749266_a_at) / Fold change /veh PRRT2 (11749266_a_at) / RFU SNX32 (11753110_a_at) / Fold change /veh SNX32 (11753110_a_at) / RFU CDHR5 (11726645_a_at) / Fold change /veh CDHR5 (11726645_a_at) / RFU RCAN1 (11760418_a_at) / Fold change /veh RCAN1 (11760418_a_at) / RFU FAM167A (11723789_a_at) / Fold change /veh FAM167A (11723789_a_at) / RFU FAM26E (11764081_at) / Fold change /veh FAM26E (11764081_at) / RFU ISYNA1 (11749810_s_at) / Fold change /veh ISYNA1 (11749810_s_at) / RFU ACY1 (11761880_at) / Fold change /veh ACY1 (11761880_at) / RFU 11764098_at / Fold change /veh 11764098_at / RFU SAMD14 (11745864_x_at) / Fold change /veh SAMD14 (11745864_x_at) / RFU NPB (11741838_a_at) / Fold change /veh NPB (11741838_a_at) / RFU TMPRSS6 (11731388_a_at) / Fold change /veh TMPRSS6 (11731388_a_at) / RFU KRTAP10-2 (11738614_at) / Fold change /veh KRTAP10-2 (11738614_at) / RFU ARHGAP8 /// PRR5-ARHGAP8 (11727945_x_at) / Fold change /veh ARHGAP8 /// PRR5-ARHGAP8 (11727945_x_at) / RFU KRTAP5-7 /// NADSYN1 (11734609_at) / Fold change /veh KRTAP5-7 /// NADSYN1 (11734609_at) / RFU RASL12 (11751679_a_at) / Fold change /veh RASL12 (11751679_a_at) / RFU CDKN2B (11736163_a_at) / Fold change /veh CDKN2B (11736163_a_at) / RFU PRF1 (11729649_at) / Fold change /veh PRF1 (11729649_at) / RFU, ZNF638 /// ZNF638-IT1 / Fold change vs veh, ZNF638 /// ZNF638-IT1 / RFU, PANK3 / Fold change vs veh, PANK3 / RFU, SH3YL1 / Fold change vs veh, SH3YL1 / RFU, ZEB2 / Fold change vs veh, ZEB2 / RFU, NRIP1 / Fold change vs veh, NRIP1 / RFU, PTTG1IP / Fold change vs veh, PTTG1IP / RFU, CAPN2 / Fold change vs veh, CAPN2 / RFU, MED14 / Fold change vs veh, MED14 / RFU, SNORA58 / Fold change vs veh, SNORA58 / RFU, C1orf63 / Fold change vs veh, C1orf63 / RFU, LRRFIP1 / Fold change vs veh, LRRFIP1 / RFU, NDUFAF7 / Fold change vs veh, NDUFAF7 / RFU, SLC12A2 / Fold change vs veh, SLC12A2 / RFU, IBTK / Fold change vs veh, IBTK / RFU, ESF1 / Fold change vs veh, ESF1 / Fold change vs veh, TMEM50B / RFU, TAOK1 / Fold change vs veh, TAOK1 / RFU, ACBD3 / Fold change vs veh, ACBD3 / RFU, TMA16 / Fold change vs veh, TMA16 / RFU, RWDD3 / Fold change vs veh, RWDD3 / RFU, BCAT1 / Fold change vs veh, BCAT1 / RFU, EDEM3 / Fold change vs veh, EDEM3 / RFU, TMEM33 / Fold change vs veh, TMEM33 / RFU, WDR75 / Fold change vs veh, WDR75 / RFU, AHCTF1 / Fold change vs veh, AHCTF1 / RFU, TFRC / Fold change vs veh, TFRC / RFU, ZDHHC17 / Fold change vs veh, ZDHHC17 / RFU, NOM1 / Fold change vs veh, NOM1 / RFU, ARL8B / Fold change vs veh, ARL8B / RFU, ZBTB11 / Fold change vs veh, ZBTB11 / RFU, TAMM41 / Fold change vs veh, TAMM41 / RFU, KIAA1704 /// LOC100996395 / Fold change vs veh, KIAA1704 /// LOC100996395 / RFU, ING1 / Fold change vs veh, ING1 / RFU, TRMT61B / Fold change vs veh, TRMT61B / RFU, FUBP3 / Fold change vs veh, FUBP3 / RFU, TP53 / Fold change vs veh, TP53 / RFU, TNKS2 / Fold change vs veh, TNKS2 / RFU, ZFP14 / Fold change vs veh, ZFP14 / RFU, ACTR2 / Fold change vs veh, ACTR2 / RFU, PPP3R1 / Fold change vs veh, PPP3R1 / RFU, PIK3R1 / Fold change vs veh, PIK3R1 / RFU, HNRNPA1 / Fold change vs veh, HNRNPA1 / RFU, RNF170 / Fold change vs veh, RNF170 / RFU, ZNF28 / Fold change vs veh, ZNF28 / RFU, RNGTT / Fold change vs veh, RNGTT / RFU, OGT / Fold change vs veh, OGT / RFU, BRD1 / Fold change vs veh, BRD1 / RFU, MARS / Fold change vs veh, MARS / RFU, ZNF655 / Fold change vs veh, ZNF655 / RFU, FAHD1 / Fold change vs veh, FAHD1 / RFU, BDP1 / Fold change vs veh, BDP1 / RFU, LRRCC1 / Fold change vs veh, LRRCC1 / RFU, ARID1A / Fold change vs veh, ARID1A / RFU, ZNF146 / Fold change vs veh, ZNF146 / RFU, ZNF330 / Fold change vs veh, ZNF330 / RFU, GPN3 / Fold change vs veh, GPN3 / RFU, C9orf123 / Fold change vs veh, C9orf123 / RFU, N4BP2L2 / Fold change vs veh, N4BP2L2 / RFU, ARFIP1 / Fold change vs veh, ARFIP1 / RFU, FAM179B / Fold change vs veh, FAM179B / RFU, BCL10 / Fold change vs veh, BCL10 / RFU, UHRF1BP1L / Fold change vs veh, UHRF1BP1L / RFU, BET1 / Fold change vs veh, BET1 / RFU, CNOT2 / Fold change vs veh, CNOT2 / RFU, ZNF268 / Fold change vs veh, ZNF268 / Fold change vs veh, ZNF507 / RFU, DGCR2 / Fold change vs veh, DGCR2 / RFU, WDSUB1 / Fold change vs veh, WDSUB1 / Fold change vs veh, HSP90B1 /// MIR3652 / RFU, ADSS / Fold change vs veh, ADSS / RFU, GK / Fold change vs veh, GK / RFU, ZNF148 / Fold change vs veh, ZNF148 / RFU, TAF9 / Fold change vs veh, TAF9 / RFU, SLC1A5 / Fold change vs veh, SLC1A5 / RFU, SLMO2 / Fold change vs veh, SLMO2 / RFU, ABCC4 / Fold change vs veh, ABCC4 / RFU, LOC101060439 /// RAP1B / Fold change vs veh, LOC101060439 /// RAP1B / RFU, RFX7 / Fold change vs veh, RFX7 / RFU, GTPBP10 / Fold change vs veh, GTPBP10 / RFU, CNEP1R1 / Fold change vs veh, CNEP1R1 / RFU, BIVM-ERCC5 /// ERCC5 / Fold change vs veh, BIVM-ERCC5 /// ERCC5 / RFU, ILF3 / Fold change vs veh, ILF3 / RFU 11762660_at / Fold change /veh 11762660_at / RFU VCAN (11757783_s_at) / Fold change /veh VCAN (11757783_s_at) / RFU DDX43 (11728927_at) / Fold change /veh DDX43 (11728927_at) / RFU KRT8 (11758188_x_at) / Fold change /veh KRT8 (11758188_x_at) / RFU NKD1 (11759106_at) / Fold change /veh NKD1 (11759106_at) / RFU SRD5A1 (11742802_a_at) / Fold change /veh SRD5A1 (11742802_a_at) / RFU TPSAB1 /// TPSB2 (11721975_s_at) / Fold change /veh TPSAB1 /// TPSB2 (11721975_s_at) / RFU GSTM3 (11746129_a_at) / Fold change /veh GSTM3 (11746129_a_at) / RFU IL23R (11737362_x_at) / Fold change /veh IL23R (11737362_x_at) / RFU TMEM51 (11727254_a_at) / Fold change /veh TMEM51 (11727254_a_at) / RFU PIWIL2 (11732686_x_at) / Fold change /veh PIWIL2 (11732686_x_at) / RFU ORM1 (11744905_x_at) / Fold change /veh ORM1 (11744905_x_at) / RFU CCDC152 (11743942_at) / Fold change /veh CCDC152 (11743942_at) / RFU ECM1 (11717891_a_at) / Fold change /veh ECM1 (11717891_a_at) / RFU IL23R (11748794_a_at) / Fold change /veh IL23R (11748794_a_at) / RFU TNFAIP8L3 (11732012_x_at) / Fold change /veh TNFAIP8L3 (11732012_x_at) / RFU MBOAT4 (11741988_at) / Fold change /veh MBOAT4 (11741988_at) / RFU 11764193_at / Fold change /veh 11764193_at / RFU TMEM53 (11763286_at) / Fold change /veh TMEM53 (11763286_at) / RFU MAGEB2 (11727129_at) / Fold change /veh MAGEB2 (11727129_at) / RFU TMEM200A (11744735_a_at) / Fold change /veh TMEM200A (11744735_a_at) / RFU CCDC152 (11751479_a_at) / Fold change /veh CCDC152 (11751479_a_at) / RFU FAM211A (11726209_a_at) / Fold change /veh FAM211A (11726209_a_at) / RFU RGS16 (11746705_a_at) / Fold change /veh RGS16 (11746705_a_at) / RFU VCAN (11755009_s_at) / Fold change /veh VCAN (11755009_s_at) / RFU RHOB (11743442_s_at) / Fold change /veh RHOB (11743442_s_at) / RFU RGS16 (11720943_a_at) / Fold change /veh RGS16 (11720943_a_at) / RFU RGS16 (11720944_at) / Fold change /veh RGS16 (11720944_at) / RFU, VPS4B / Fold change vs veh, VPS4B / RFU, CREB1 / Fold change vs veh, CREB1 / RFU, DNAJC13 / Fold change vs veh, DNAJC13 / RFU, GNAQ / Fold change vs veh, GNAQ / RFU, CDK5R1 / Fold change vs veh, CDK5R1 / RFU, ZRANB3 / Fold change vs veh, ZRANB3 / RFU, CUL4A / Fold change vs veh, CUL4A / RFU, CCNY / Fold change vs veh, CCNY / RFU, UFL1 / Fold change vs veh, UFL1 / RFU, COG3 / Fold change vs veh, COG3 / RFU, DIAPH2 / Fold change vs veh, DIAPH2 / RFU, SKA2 / Fold change vs veh, SKA2 / RFU, AFF3 / Fold change vs veh, AFF3 / RFU, LMF1 / Fold change vs veh, LMF1 / RFU, IPO11 / Fold change vs veh, IPO11 / RFU, DFFB / Fold change vs veh, DFFB / RFU, FOXP1 / Fold change vs veh, FOXP1 / RFU, CARD8 / Fold change vs veh, CARD8 / RFU, STRN3 / Fold change vs veh, STRN3 / RFU, ADK / Fold change vs veh, ADK / RFU, RASSF2 / Fold change vs veh, RASSF2 / RFU, WIPF1 / Fold change vs veh, WIPF1 / RFU, LARP1B / Fold change vs veh, LARP1B / RFU, RASA1 / Fold change vs veh, RASA1 / RFU, RB1 / Fold change vs veh, RB1 / RFU, PPFIA1 / Fold change vs veh, PPFIA1 / RFU, MAT2A / Fold change vs veh, MAT2A / RFU, CCT5 / Fold change vs veh, CCT5 / RFU, WDR92 / Fold change vs veh, WDR92 / RFU, CUX1 / Fold change vs veh, CUX1 / RFU, TTC7A / Fold change vs veh, TTC7A / RFU, TMEM135 / Fold change vs veh, TMEM135 / RFU, DEPTOR / Fold change vs veh, DEPTOR / RFU, CPM / Fold change vs veh, CPM / RFU, DNAJB6 / Fold change vs veh, DNAJB6 / RFU, CACNA2D3 / Fold change vs veh, CACNA2D3 / RFU, DTX4 / Fold change vs veh, DTX4 / RFU, TFCP2 / Fold change vs veh, TFCP2 / RFU, GMCL1 /// GMCL1P1 / Fold change vs veh, GMCL1 /// GMCL1P1 / RFU, AEBP2 / Fold change vs veh, AEBP2 / RFU, SNHG1 /// SNORD22 /// SNORD25 /// SNORD26 /// SNORD27 /// SNORD28 /// SNORD29 /// SNORD31 / Fold change vs veh, SNHG1 /// SNORD22 /// SNORD25 /// SNORD26 /// SNORD27 /// SNORD28 /// SNORD29 /// SNORD31 / Fold change (Aza/veh), C12orf56 (ProbeSet 11735607_a_at) / Fold change (ACY-1035/veh), C12orf56 (ProbeSet 11735607_a_at) / Fold change (Aza/veh), FGFR1OP (ProbeSet 11751329_s_at) / Fold change (ACY-1035/veh), FGFR1OP (ProbeSet 11751329_s_at) / Fold change (Aza/veh), VPS36 (ProbeSet 11739960_a_at) / Fold change (ACY-1035/veh), VPS36 (ProbeSet 11739960_a_at) / RFU SYPL1 (11715823_x_at) / Fold change /veh SYPL1 (11715823_x_at) / RFU IGFBP7 (11715501_s_at) / Fold change /veh IGFBP7 (11715501_s_at) / RFU REEP3 (11722064_at) / Fold change /veh REEP3 (11722064_at) / RFU IGLL1 (11728026_x_at) / Fold change /veh IGLL1 (11728026_x_at): dose or concentration left out as unconfirmed", "settings": "MV-4-11 cells, 48 hours"}
{"smiles": "Nc1ccc(-c2cccs2)cc1NC(=O)c1ccc2c(c1)cc(C1CC1)n2CCN1CCOCC1", "note": "[ACY-1035]", "values": [{"measurement": "RFU CMKLR1 (11741424_a_at)", "result": 17.99, "unit": "RFU"}]}
